Read-outs that look alike come from different tables or passages of the source.
Columns and labels:
Assay type in all cases: binding
[1] = biological target: T1, HeLa cell extract proteins (Homo sapiens, UniProt P26447)
T1 construct: endogenous in cells; host or cells: HeLa cell extract

[2] = biological target: T2, HeLa cell extract proteins (Homo sapiens, UniProt Q9Y262)
T2 construct: endogenous in cells; host or cells: HeLa cell extract

[3] = biological target: T3, HeLa cell extract proteins (Homo sapiens, UniProt Q99714)
T3 construct: endogenous in cells; host or cells: HeLa cell extract
T3 sequence (Q99714 1-261): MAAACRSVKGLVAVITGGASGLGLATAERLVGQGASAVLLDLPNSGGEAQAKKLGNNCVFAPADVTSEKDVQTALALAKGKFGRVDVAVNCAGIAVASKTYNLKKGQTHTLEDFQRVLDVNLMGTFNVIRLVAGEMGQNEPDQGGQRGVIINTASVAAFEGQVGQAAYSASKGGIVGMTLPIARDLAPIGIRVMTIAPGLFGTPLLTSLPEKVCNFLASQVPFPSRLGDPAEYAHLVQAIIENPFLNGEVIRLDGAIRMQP

[4] = biological target: T4, HeLa cell extract proteins (Homo sapiens, UniProt Q13162)
T4 construct: endogenous in cells; host or cells: HeLa cell extract
T4 sequence (Q13162 38-271): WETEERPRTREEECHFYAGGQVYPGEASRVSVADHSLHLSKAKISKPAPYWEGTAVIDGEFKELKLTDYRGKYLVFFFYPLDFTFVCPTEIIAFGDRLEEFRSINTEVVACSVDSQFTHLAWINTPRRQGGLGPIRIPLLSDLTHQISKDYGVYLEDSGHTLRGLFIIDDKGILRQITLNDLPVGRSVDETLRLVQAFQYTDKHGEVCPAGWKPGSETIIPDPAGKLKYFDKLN

[5] = biological target: T5, HeLa cell extract proteins (Homo sapiens, UniProt P57740)
T5 construct: endogenous in cells; host or cells: HeLa cell extract
T5 sequence (P57740 1-925): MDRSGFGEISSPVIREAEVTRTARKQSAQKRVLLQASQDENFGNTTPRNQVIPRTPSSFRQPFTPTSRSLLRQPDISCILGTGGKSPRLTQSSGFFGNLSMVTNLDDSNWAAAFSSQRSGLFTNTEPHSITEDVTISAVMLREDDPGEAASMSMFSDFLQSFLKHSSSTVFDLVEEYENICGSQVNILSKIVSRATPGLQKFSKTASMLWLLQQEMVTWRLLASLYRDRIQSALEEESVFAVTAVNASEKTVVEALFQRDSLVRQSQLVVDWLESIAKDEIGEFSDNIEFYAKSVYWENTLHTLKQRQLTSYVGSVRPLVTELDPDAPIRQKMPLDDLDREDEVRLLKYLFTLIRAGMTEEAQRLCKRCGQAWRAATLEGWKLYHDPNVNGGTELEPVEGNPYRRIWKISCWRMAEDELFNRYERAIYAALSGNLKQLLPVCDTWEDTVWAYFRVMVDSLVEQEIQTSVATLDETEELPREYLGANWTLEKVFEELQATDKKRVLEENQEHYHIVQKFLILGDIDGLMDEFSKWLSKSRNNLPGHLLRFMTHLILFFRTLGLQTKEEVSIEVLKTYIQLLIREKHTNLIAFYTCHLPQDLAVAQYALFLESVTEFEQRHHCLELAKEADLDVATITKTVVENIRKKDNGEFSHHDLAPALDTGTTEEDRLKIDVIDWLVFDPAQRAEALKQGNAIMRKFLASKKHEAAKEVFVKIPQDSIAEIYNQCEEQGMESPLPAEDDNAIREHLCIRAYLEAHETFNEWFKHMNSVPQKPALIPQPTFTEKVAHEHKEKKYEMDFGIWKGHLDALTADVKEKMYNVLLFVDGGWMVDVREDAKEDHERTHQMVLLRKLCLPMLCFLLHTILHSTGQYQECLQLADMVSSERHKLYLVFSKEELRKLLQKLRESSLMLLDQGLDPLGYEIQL

[6] = biological target: T6, HeLa cell extract proteins (Homo sapiens, UniProt P24863)
T6 construct: endogenous in cells; host or cells: HeLa cell extract
T6 sequence (P24863 1-283): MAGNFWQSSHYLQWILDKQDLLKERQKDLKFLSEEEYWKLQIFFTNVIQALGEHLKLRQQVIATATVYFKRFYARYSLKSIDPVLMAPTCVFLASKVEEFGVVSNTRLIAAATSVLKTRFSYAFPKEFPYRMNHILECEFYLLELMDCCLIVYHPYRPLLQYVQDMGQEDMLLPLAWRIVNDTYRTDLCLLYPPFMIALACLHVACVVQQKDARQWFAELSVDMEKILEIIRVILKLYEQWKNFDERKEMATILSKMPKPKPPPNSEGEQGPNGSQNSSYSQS

[7] = biological target: T7, HeLa cell extract proteins (Homo sapiens, UniProt P06703)
T7 construct: endogenous in cells; host or cells: HeLa cell extract

[8] = biological target: T8, HeLa cell extract proteins (Homo sapiens, UniProt P35270)
T8 construct: endogenous in cells; host or cells: HeLa cell extract
T8 sequence (P35270 whole entry): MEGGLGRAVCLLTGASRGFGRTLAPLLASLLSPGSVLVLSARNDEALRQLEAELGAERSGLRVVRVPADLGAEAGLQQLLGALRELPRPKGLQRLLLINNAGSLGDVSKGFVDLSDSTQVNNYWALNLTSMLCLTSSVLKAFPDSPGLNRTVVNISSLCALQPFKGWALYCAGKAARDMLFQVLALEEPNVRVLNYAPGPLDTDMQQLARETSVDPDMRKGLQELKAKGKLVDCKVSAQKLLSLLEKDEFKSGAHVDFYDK

[9] = biological target: T9, HeLa cell extract proteins (Homo sapiens, UniProt P25788)
T9 construct: endogenous in cells; host or cells: HeLa cell extract
T9 sequence (P25788 1-255): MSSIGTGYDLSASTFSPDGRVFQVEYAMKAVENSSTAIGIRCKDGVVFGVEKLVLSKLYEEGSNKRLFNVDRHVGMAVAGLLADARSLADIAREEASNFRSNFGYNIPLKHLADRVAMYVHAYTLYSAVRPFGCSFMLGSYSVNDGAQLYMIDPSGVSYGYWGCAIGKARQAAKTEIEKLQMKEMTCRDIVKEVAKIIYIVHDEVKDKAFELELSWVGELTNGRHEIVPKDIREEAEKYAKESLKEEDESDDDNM

[10] = biological target: T10, HeLa cell extract proteins (Homo sapiens, UniProt P62333)
T10 construct: endogenous in cells; host or cells: HeLa cell extract
T10 sequence (P62333 whole entry): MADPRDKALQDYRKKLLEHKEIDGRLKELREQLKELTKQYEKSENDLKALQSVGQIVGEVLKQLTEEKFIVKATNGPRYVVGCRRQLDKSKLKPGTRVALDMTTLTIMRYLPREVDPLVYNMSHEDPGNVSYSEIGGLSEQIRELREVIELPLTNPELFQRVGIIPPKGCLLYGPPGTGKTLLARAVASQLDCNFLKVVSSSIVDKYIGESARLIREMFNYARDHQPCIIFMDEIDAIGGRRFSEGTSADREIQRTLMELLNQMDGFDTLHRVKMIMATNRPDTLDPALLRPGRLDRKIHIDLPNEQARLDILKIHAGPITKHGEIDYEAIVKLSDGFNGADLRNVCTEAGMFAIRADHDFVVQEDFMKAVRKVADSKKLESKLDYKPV

[11] = biological target: T11, HeLa cell extract proteins (Homo sapiens, UniProt Q08209)
T11 construct: endogenous in cells; host or cells: HeLa cell extract

[12] = biological target: T12, HeLa cell extract proteins (Homo sapiens, UniProt Q5R3I4)
T12 construct: endogenous in cells; host or cells: HeLa cell extract
T12 sequence (Q5R3I4 whole entry): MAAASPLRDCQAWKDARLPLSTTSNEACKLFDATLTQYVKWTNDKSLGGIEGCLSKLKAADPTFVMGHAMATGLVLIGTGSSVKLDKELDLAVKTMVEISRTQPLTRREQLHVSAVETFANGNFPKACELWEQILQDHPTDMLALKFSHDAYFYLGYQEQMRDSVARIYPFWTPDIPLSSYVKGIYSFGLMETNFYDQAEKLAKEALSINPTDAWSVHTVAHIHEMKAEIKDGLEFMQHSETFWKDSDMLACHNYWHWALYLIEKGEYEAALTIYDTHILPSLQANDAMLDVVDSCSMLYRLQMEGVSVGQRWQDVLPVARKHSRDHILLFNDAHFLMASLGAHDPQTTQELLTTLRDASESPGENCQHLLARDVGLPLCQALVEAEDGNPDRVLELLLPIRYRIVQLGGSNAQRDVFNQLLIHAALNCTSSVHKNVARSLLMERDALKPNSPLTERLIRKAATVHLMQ

[13] = biological target: T13, HeLa cell extract proteins (Homo sapiens, UniProt Q9HBL8)
T13 construct: endogenous in cells; host or cells: HeLa cell extract
T13 sequence (Q9HBL8 whole entry): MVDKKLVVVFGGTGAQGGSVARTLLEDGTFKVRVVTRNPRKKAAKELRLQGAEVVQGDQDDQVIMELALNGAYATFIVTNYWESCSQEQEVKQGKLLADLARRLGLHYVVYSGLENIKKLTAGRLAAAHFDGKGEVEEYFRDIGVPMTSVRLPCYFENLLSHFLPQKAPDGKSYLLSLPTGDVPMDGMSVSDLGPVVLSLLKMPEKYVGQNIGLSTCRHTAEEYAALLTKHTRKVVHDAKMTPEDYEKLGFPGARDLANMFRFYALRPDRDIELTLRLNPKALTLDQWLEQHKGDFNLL

[14] = HeLa, protein PRDX4 (PEROXIREDOXIN-4)
[15] = HeLa, protein TTC38 (HYPOTHETICAL PROTEIN LOC55020)

T2 sequence (Q9Y262 whole entry): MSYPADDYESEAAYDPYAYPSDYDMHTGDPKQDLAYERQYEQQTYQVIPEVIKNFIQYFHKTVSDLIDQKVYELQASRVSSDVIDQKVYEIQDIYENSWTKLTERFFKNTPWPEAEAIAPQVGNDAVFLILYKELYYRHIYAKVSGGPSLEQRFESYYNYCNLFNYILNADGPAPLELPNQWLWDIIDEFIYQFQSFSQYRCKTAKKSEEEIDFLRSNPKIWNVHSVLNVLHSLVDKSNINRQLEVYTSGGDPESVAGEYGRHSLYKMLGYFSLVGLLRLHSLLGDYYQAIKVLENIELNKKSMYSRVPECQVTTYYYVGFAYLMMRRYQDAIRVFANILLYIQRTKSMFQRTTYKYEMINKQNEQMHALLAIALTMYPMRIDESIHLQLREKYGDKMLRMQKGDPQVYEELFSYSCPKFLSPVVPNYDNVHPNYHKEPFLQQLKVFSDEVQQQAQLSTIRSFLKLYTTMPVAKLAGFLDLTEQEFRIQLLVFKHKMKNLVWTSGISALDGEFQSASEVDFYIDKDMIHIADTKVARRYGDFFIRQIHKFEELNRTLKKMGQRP
T1 sequence (P26447 whole entry): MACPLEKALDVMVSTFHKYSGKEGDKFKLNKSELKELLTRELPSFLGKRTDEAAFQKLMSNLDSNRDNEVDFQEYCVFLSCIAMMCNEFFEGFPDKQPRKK

| Compound | fold changes relative to vehicle control ([1]; protein S100A4, HeLa) | fold changes relative to vehicle control ([2]; protein EIF3L, HeLa) | fold changes relative to vehicle control ([3]; protein HSD17B10, HeLa) | fold changes relative to vehicle control ([4]; HeLa, protein PRDX4) | fold changes relative to vehicle control ([5]; HeLa, protein NUP107) | fold changes relative to vehicle control ([6]; captured protein CCNC, HeLa) | fold changes relative to vehicle control ([7]; protein S100A6, HeLa) | fold changes relative to vehicle control ([8]; protein SPR, HeLa) | fold changes relative to vehicle control ([9]; protein PSMA3, HeLa) | fold changes relative to vehicle control ([10]; protein PSMC6, HeLa) | fold changes relative to vehicle control ([11]; HeLa, protein PPP3CA) | fold changes relative to vehicle control ([12]; HeLa, protein TTC38) | fold changes relative to vehicle control ([13]; captured protein NMRAL1, HeLa) | fold changes relative to vehicle control ([2]; HeLa, captured protein EIF3L) | fold changes relative to vehicle control ([3]; HeLa, protein HSD17B10) | fold changes relative to vehicle control [4, 14] | fold changes relative to vehicle control ([6]; HeLa, protein CCNC) | fold changes relative to vehicle control ([7]; HeLa, protein S100A6) | fold changes relative to vehicle control ([8]; HeLa, protein SPR) | fold changes relative to vehicle control ([9]; HeLa, captured protein PSMA3) | other results |
| --- | --- | --- | --- | --- | --- | --- | --- | --- | --- | --- | --- | --- | --- | --- | --- | --- | --- | --- | --- | --- | --- |
| Nc1nc2cccc(-c3ccccc3)c2n1Cc1ccc(Cl)c(Cl)c1 [compound 3] | 1.15 | 1.09 | 0.93 | 0.99 | 1.07 | 0.93 | 0.95 | 1.12 | 0.86 | 1.2 | 1.03 | 1 | 0.95 |  |  |  |  |  |  |  |  |
| CCCCCCOc1ccc(Cc2cnc(N)nc2N)cc1 [compound 1] | 0.83 | 1.05 | 0.91 | 1.08 | 0.98 | 0.89 | 1.13 | 1.03 | 1.04 | 1.1 | 1.1 | 1 | 0.54 |  |  |  |  |  |  |  |  |
| NCCCNc1ccc(C(=O)NC(CCC(=O)O)C(=O)O)cc1 (stereo not shown) [compound 7] | 1.03 |  |  |  | 1.26 |  |  |  |  | 0.96 | 0.85 |  |  | 0.93 | 0.93 | 0.99 | 0.95 | 1.26 | 0.95 | 0.98 | fold changes relative to vehicle control [12, 15]: 0.99; fold changes relative to vehicle control ([13]; protein NMRAL1, HeLa): 1.03 |
| CCCCCCOc1cccc(Cc2cnc(N)nc2N)c1 [compound 2] | 1.43 | 1.25 | 1.31 | 0.93 | 1.03 | 0.9 | 1.89 | 1.21 | 1.27 | 1.57 | 1.13 | 0.68 | 1.05 |  |  |  |  |  |  |  |  |
| NCCOCCOCC(=O)Nc1nc2ncc(CNc3ccc(C(=O)NC(CCC(=O)O)C(=O)O)cc3)nc2c(=O)[nH]1 (stereo not shown) [compound 6] | 1.18 |  |  |  | 1.18 |  |  |  |  | 1.07 | 0.95 |  |  | 1.07 | 0.94 | 0.92 | 0.94 | 1.94 | 0.92 | 1.01 | fold changes relative to vehicle control [12, 15]: 0.89; fold changes relative to vehicle control ([13]; protein NMRAL1, HeLa): 0.62 |
| Nc1nc2[nH]cc(CCc3ccc(C(=O)N[C@@H](CCC(=O)O)C(=O)O)cc3)c2c(=O)[nH]1 [PTX, pemetrexed] |  |  |  |  |  |  |  |  |  |  |  |  |  |  |  |  |  |  |  |  | fold changes relative to vehicle control [1]: 0.99; fold changes relative to vehicle control [2]: 0.91; fold changes relative to vehicle control [3]: 0.9; fold changes relative to vehicle control [4]: 0.96; fold changes relative to vehicle control [5]: 0.98; fold changes relative to vehicle control [6]: 0.83; fold changes relative to vehicle control [7]: 1.46; fold changes relative to vehicle control [8]: 0.86; fold changes relative to vehicle control [9]: 0.99; fold changes relative to vehicle control [10]: 0.92; fold changes relative to vehicle control [11]: 0.91; fold changes relative to vehicle control [12]: 0.93; fold changes relative to vehicle control [13]: 0.89 |
| Nc1nc2c(c(=O)[nH]1)N(C=O)C(CNc1ccc(C(=O)N[C@@H](CCC(=O)O)C(=O)O)cc1)CN2 (stereo partly shown) [LEU, leucovorin] | 0.95 |  |  |  | 1.01 |  |  |  |  | 0.84 | 0.97 |  |  | 1 | 0.93 | 1.09 | 1.13 | 1.3 | 0.92 | 1.02 | fold changes relative to vehicle control ([12]; HeLa, protein TTC38 (HY[…] LOC55020)): 1.03; fold changes relative to vehicle control ([13]; protein NMRAL1, HeLa): 1.01 |

— paper PMC6199744, “Development of Chemical Proteomics for the Folateome and Analysis of the Kinetoplastid Folateome” (ACS Infectious Diseases, 2018)
